Literature values in patent publication US6046331A, “Imidazolones and their use in treating benign prostatic hyperplasia and other disorders” (Synaptic Pharmaceutical Corporation, priority 1998, dated 2000).

Columns and labels:
[1] = in vivo; cited from earlier work
[2] = cited from earlier work

SMILES	side effects [1]	relieving the symptoms of / treating BPH [2]
Clc1cccc(Cl)c1N=C1NCCN1 [clonidine]	dry mouth and sedation	
CC(COc1ccccc1)N(CCCl)Cc1ccccc1 (stereo not shown) [phenoxybenzamine]	significant side effects such as dizziness and asthenia	useful in relieving the symptoms of BPH
COc1cc2nc(N3CCN(C(=O)c4ccco4)CC3)nc(N)c2cc1OC [prazosin]	untoward side effects	useful for treating BPH
COc1cc2nc(N3CCN(C(=O)C4CCCO4)CC3)nc(N)c2cc1OC (stereo not shown) [terazosin]	untoward side effects	useful for treating BPH
